# Columns and labels:
# C6 = assay: Neuroprotective activity in rat C6 cells assessed as NGF secretion at 20 uM incubated for 24 hrs by ELISA relative to control; format: functional
# [1] = Cytotoxicity against rat C6 cells assessed as cell viability at 20 uM incubated for 24 hrs by MTT assay relative to control; format: cell-based; settings: read-out: Activity
# BV-2 = assay: Antineuroinflammatory activity against mouse BV2 cells assessed as inhibition in LPS-induced NO production preincubated for 30 mins followed b LPS addition and measured after 24 hr by griess reagent based assay; format: functional, cell-based
IC50 (BV-2),SMILES,Activity (C6),"viability at 24 h, 20 µM [1]"
–,CCCCC/C=C/C(=O)CCc1ccc(O)c(OC)c1 [SHOGAOL],140.69%,111%
–,O=C1N(CCc2ccccc2)C(=O)[C@@]2(O)CCCN12,115.13%,106%
–,O=C1N(CCc2ccccc2)C(=O)[C@]2(O)CCCN12,98.7%,91.2%
32.6 µM,NC(=O)NCCc1ccccc1,105.82%,107%
–,O=C1[C@@H]2CCCN2C(=O)N1CCc1ccccc1,111.26%,111%
–,C=CCN1C(=O)[C@@]2(O)CCCN2C1=S,153.59%,114%
21.9 µM,CNC(=N)NCCC[C@H](N)C(=O)O [TILARGININE],–,–
–,C=CCN1C(=O)[C@]2(O)CCCN2C1=S,93.41%,106%
–,CSC1=NC[C@]2(S1)C(=O)Nc1ccccc12,96.3%,88.2%
–,C=CCN1C(=O)N2CCC[C@]2(O)C1=O,141.99%,100%
–,O=C1C2CCCN2C(=S)N1Cc1ccccc1 (stereo not drawn),105.88%,109%
–,O=C1N(CCc2ccccc2)C(=S)N2CCC[C@@]12O,75.08%,112%
–,C=CCN1C(=O)N2CCC[C@@]2(O)C1=O,110.66%,97.3%
–,O=C1N(CCc2ccccc2)C(=S)N2CCC[C@]12O,100.68%,108%
